Paper PMC8842277, “Highly Antiproliferative Latonduine and Indolo[2,3-c]quinoline Derivatives: Complex Formation with Copper(II) Markedly Changes the Kinase Inhibitory Profile” (Journal of Medicinal Chemistry, 2022)
Values joined by “and” are separate entries in the source; they are usually repeats but may differ in a detail not shown here. Equal entries are not always repeated. Where two headings read alike, the source gives them in different places.

Tests used:
[1] = Solubility in water/DMSO 99/1; format: physicochemical
Protocol: To a solution of HL^1 (203 mg, 0.45 mmol) in isopropanol (10 mL) a solution of CuCl2·2H2O (77 mg, 0.45 mmol) in methanol (500 μL) was added. The mixture was heated at reflux for 1 h, cooled to room temperature, and allowed to stand at 4 °C overnight. The product was filtered off, washed with isopropanol (3 mL), and dried in vacuo overnight to give a red-brown powder. Yield: 245 mg. Solubility in water/DMSO 99/1: ≥11 mg mL^–1.

[2] = test system: doxorubicin-sensitive Colo205 human colon adenocarcinoma cells; experiment: MTT antiproliferative assay; format: cell-based; details: for selectivity factor (SF) Colo205: IC50 MRC-5/IC50 Colo205; for IC50: MTT, 72 h
Protocol: (§1) The in vitro antiproliferative activity of the compounds was tested in doxorubicin-sensitive Colo205 and multidrug-resistant Colo320 human colon adenocarcinoma cell lines as well as in normal human embryonal lung fibroblast cells (MRC-5) by MTT assay.
(§2) Human colonic adenocarcinoma cell lines Colo 205 doxorubicin-sensitive (ATCC-CCL-222) and Colo 320/MDR-LRP multidrug resistant over-expressing ABCB1 (MDR1)-LRP (ATCC-CCL-220.1) were purchased from LGC Promochem, Teddington, UK. The cells were cultured in an RPMI 1640 medium supplemented with 10% heat-inactivated fetal bovine serum, 2 mM L-glutamine, 1 mM Na-pyruvate, and 10 mM HEPES. The semi-adherent human colon cancer cells were detached with Trypsin-Versene (EDTA) solution for 5 min at 37 °C. An MRC-5 human embryonal lung fibroblast cell line (ATCC CCL-171) was purchased from LGC Promochem, Teddington, UK. The cells were cultured in Eagle’s minimal essential medium (EMEM, containing 4.5 g L^–1 glucose) supplemented with a non-essential amino acid mixture, a selection of vitamins, and 10% heat-inactivated fetal bovine serum. The HCT-116 colon carcinoma cells and isogenic p53-knock-out subline were a gift of Prof. Bert Vogelstein from The Johns Hopkins Oncology Center. Cells were cultured in McCoy’s 5A medium supplemented with 10% heat-inactivated fetal bovine serum and 4 mM L-glutamine. All cell lines were incubated at 37 °C, in a 5% CO2, 95% air atmosphere.
(§3) MRC-5 non-cancerous human embryonic lung fibroblast and human colonic adeno-carcinoma cell lines (doxorubicin-sensitive Colo 205 and multidrug resistant Colo 320 colonic adenocarcinoma cells) were used to determine the effect of compounds on cell growth. The effects of increasing concentrations of compounds on cell growth were tested in 96-well flat-bottomed microtiter plates. The compounds were dissolved in DMSO and stock solutions of 10 mM were prepared. These were further diluted in the appropriate cell culture medium by twofold serial dilution starting from 100 or 10 μM for the compounds. The adherent human embryonal lung fibroblast cells were cultured in 96-well flat-bottomed microtiter plates using EMEM supplemented with 10% heat-inactivated fetal bovine serum. The density of the cells was adjusted to 1 × 10^4 cells in 100 μL per well, the cells were seeded for 24 h at 37 °C, 5% CO2, then the medium was removed from the plates containing the cells, and the dilutions of compounds previously made in a separate plate were added to the cells in 200 μL. In the case of the colonic adenocarcinoma cells, the twofold serial dilutions of compounds were prepared in 100 μL of RPMI 1640, horizontally. The semi-adherent colonic adenocarcinoma cells were treated with Trypsin-Versene (EDTA) solution. They were adjusted to a density of 1 × 10^4 cells in 100 μL of RPMI 1640 medium and were added to each well, with the exception of the medium control wells. The final volume of the wells containing compounds and cells was 200 μL. The culture plates were incubated at 37 °C for 72 h; at the end of the incubation period, 20 μL of MTT (thiazolyl blue tetrazolium bromide, Sigma) solution (from a stock solution of 5 mg mL^–1) was added to each well. After incubation at 37 °C for 4 h, 100 μL of sodium dodecyl sulfate (SDS) (Sigma) solution (10% in 0.01 M HCI) was added to each well and the plates were further incubated at 37 °C overnight. Cell growth was determined by measuring the optical density (OD) at 540/630 nm with a Multiscan EX ELISA reader (Thermo Labsystems, Cheshire, WA, USA). […] Curves were fitted by GraphPad Prism software[57] using the sigmoidal dose–response model (comparing variable and fixed slopes). The IC50 values were obtained from at least three independent experiments. Tests in adherent HCT-116 colon carcinoma cells and an isogenic p53-knock-out subline thereof were performed in a similar manner, with 1.5 × 10^3 cells seeded in 100 μL of McCoy’s 5A medium (Sigma-Aldrich) per well. […]

[3] = test system: multidrug-resistant Colo320 human colon adenocarcinoma cells; experiment: MTT antiproliferative assay; format: cell-based; details: for selectivity factor (SF) Colo320: IC50 MRC-5/IC50 Colo320; for IC50: MTT, 72 h
Protocol: as §1, §2, §3

[4] = test system: normal human embryonal lung fibroblast cells (MRC-5); experiment: MTT antiproliferative assay; format: cell-based; details: read-out: IC50 MRC-5 benign, mean
Protocol: as §1, §2, §3

[5] = Proton dissociation constants by UV–vis titration; format: physicochemical; details: 30–70% (w/w) DMSO–water; for pKa: DMSO:water 30:70 (w/w) solvent mixture
Protocol: The protonation processes of HL^1nm and its morpholine counterpart HL^1 (Chart 3) and the solution stability of their copper(II) complexes (1nm and 1) were characterized by UV–vis spectrophotometry. […] Based on the characteristic changes in the UV–vis spectra for HL^1nm in the pH range 2–6 (Figure 3a), two relatively well-separated proton dissociation processes were observed and their pKa values were determined (Table 1).
(§4) An Agilent Carry 8454 diode array spectrophotometer was used to record the UV–visible (UV–vis) spectra in the interval 200–800 nm. The path length was 2 or 0.5 cm. Spectrophotometric titrations were performed on samples containing the proligands HL^1, HL^1nm, or their copper(II) complexes (1 and 1nm; see Chart 2) by a KOH solution in the presence of 0.1 M KCl in a DMSO:water 30:70 (w/w) mixture as a solvent at 25.0 ± 0.1 °C in the pH range from 2 to 11. […] An Orion 710A pH meter equipped with a Metrohm combined electrode (type 6.0234.100) and a Metrohm 665 Dosimat burette were used for the pH measurements and titrations. […] The average water ionization constant (pKw) is 14.52 ± 0.05, which corresponds well to the literature data.[103] Argon was passed over the solutions during the titrations. Proton dissociation constants (pKa) of the ligand, overall stability constants (log β) of the copper(II) complexes, and the individual spectra of the various species present in the solution were calculated by the computer program PSEQUAD.[104] β (MpLqHr) is defined for the general equilibrium pM + qL + rH MpLqHr as β (MpLqHr) = [MpLqHr]/[M]^p[L]^q[H]^r where M denotes the copper(II) ion and L the completely deprotonated ligand. The calculations were always made from the experimental titration data measured in the absence of any precipitate in the solution.

[6] = Overall stability constants of copper(II) complexes by UV–vis titration; format: physicochemical; details: 30–70% (w/w) DMSO–water, 298 K
Text: The tridentate coordination via the N,N,N donor set is assumed in [Cu(HL^1nm)]^2+ at such low pH. […] The deprotonation of the non-coordinating hydrazonic nitrogen is likely, and complex [Cu(L^1nm)]^+ is formed. […] However, the absorbance is decreased in the whole wavelength range due to precipitate formation. By the deconvolution of the recorded UV–vis spectra, overall stability constants for the complexes [Cu(HL^1nm)]^2+ and [Cu(L^1nm)]^+ were computed, and log β for [Cu(L^1nm)(OH)] was only estimated (Table 1). In the case of the morpholine hybrid, a somewhat different speciation was obtained as the presence of the pendant morpholine moiety had to be taken into consideration. Log β values for [CuH(HL^1)]^3+, [CuH(L^1)]^2+, and [Cu(L^1)]^+ were computed from the spectrophotometric titration data (Table 1). Since the molar absorbance spectra of [CuH(HL^1)]^3+ and [CuH(L^1)]^2+ complexes resemble those of [Cu(HL^1nm)]^2+ and [Cu(L^1nm)]^+ (Figure 4b), the same coordination modes are likely in these species in couples. […] Increasing the pH (pH > 5), the absorbance is decreased in the whole wavelength range, no isosbestic points are found (indicating the formation of some precipitate), while the λmax is increased. Formation of a mixed hydroxido species [CuH(L^1)(OH)]^+ is also possible. However, the deprotonation of the morpholinium group can take place as well (formation of [Cu(L^1)]^+) in this pH range. As these two processes are overlapping, the two species could not be well distinguished, and the obtained stability constant is quite uncertain.
as §4

[7] = Thermodynamic solubility, UV–vis of saturated solutions; details: water, 298 K
Protocol: The concentration of the compounds was determined by UV–vis spectrophotometry using stock solutions of the compounds with a known concentration dissolved in pure DMSO and 50% (v/v) DMSO/buffered aqueous solution for the calibration.

[8] = parameters: method as in PMID 31125040; details: cited from earlier work
[9] = 298 K, I = 0.10 M (KCl), read-out: pKa2

| SMILES | Solubility in water/DMSO 99/1 [1] [mg mL^–1] | selectivity factor (SF) Colo205 [2] | IC50 [2] [nM] | selectivity factor (SF) Colo320 [3] | IC50 [3] [nM] | IC50 ([4]; 72 h) [nM] | pKa [5, 9] | further results |
| --- | --- | --- | --- | --- | --- | --- | --- | --- |
| Brc1ccc2[nH]c3c(c2c1)-c1ccccc1CN=C3NN=Cc1ccc(CN2CCOCC2)cn1.[Cl][Cu][Cl] [compound 2, CuCl2(HL^2)·2H2O] | ≥ 14 | 2.01 | 2740 | 1.73 | 3190 | 5520 |  |  |
| C(=N\N=C1/NCc2ccccc2-c2c1[nH]c1ccccc21)/c1ccccn1 [HL^1nm] |  |  |  |  |  |  | 4.75 ± 0.01 | pKa ([5]; 298 K, I = 0.10 M (KCl), read-out: pKa1): 2.32 ± 0.01; log β [Cu(HL^1nm)]^2+ ([6]; I = 0.10 M (KCl)): 8.33 and 8.33 ± 0.01; log β [Cu(L^1nm)]^+ ([6]; I = 0.10 M (KCl)): 4.01 and 4.01 ± 0.01; log β [Cu(L^1nm)(OH)] ([6]; only estimated): –3.1 ± 0.1 |
| CC(=NNC1=NCc2ccccc2-c2c1[nH]c1ccccc21)c1ccc(CN2CCOCC2)cn1.[Cl][Cu][Cl] [compound 3, CuCl2(HL^3)·0.2C3H7OH·0.3H2O] | ≥ 10 | 1.80 | 230 | 1.23 | 335 | 413 |  | Thermodynamic solubility (S) ([7]; pH 5, 20 mM MES buffer): 63.4 µM; Thermodynamic solubility (S) ([7]; pH 7.4, 20 mM HEPES): 6.0 µM |
| CC(=NN=C1NCc2ccccc2-c2c1[nH]c1ccccc21)c1ccccn1 [HL^3nm] |  |  |  |  |  |  |  | log β (copper(II) complexes of HL^3nm) [8]: 6.39; log β [Cu(HL^3nm)]^2+ [8]: 10.96 |
| C(=NNC1=NCc2ccccc2-c2c1[nH]c1ccccc21)c1ccc(CN2CCOCC2)cn1.[Cl][Cu][Cl] [compound 1, CuCl2(HL^1)·H2O] | ≥ 11 | 1.33 | 1420 | 0.83 | 2290 | 1900 |  | pKa [CuH(HL^1)]^3+ ([5]; 298 K, I = 0.10 M (KCl)): 3.81; pKa [CuH(L^1)]^2+ ([5]; overlapping species (footnote a)): 5.71 |
| C(=N\N=C1/NCc2ccccc2-c2c1[nH]c1ccccc21)/c1ccc(CN2CCOCC2)cn1 [HL^1] |  |  |  |  |  |  | 4.53 ± 0.02 | pKa ([5]; 298 K, I = 0.10 M (KCl), read-out: pKa3): 5.65 ± 0.02; log β [CuH(HL^1)]^3+ ([6]; I = 0.10 M (KCl)): 12.38 ± 0.01; log β [CuH(L^1)]^2+ ([6]; I = 0.10 M (KCl)): 8.57 ± 0.01; IC50 ([4]; Homo sapiens, MRC5, 72 h): 3020 nM |
